System: HT-1080 cells
Test: Metabolite profiling (LC-MS/MS) upon erastin treatment
Format: cell-based, human
Conditions: 5 μg/mL erastin 5 h
Method: 2 million HT-1080 cells were seeded in 10 cm culture dishes. […] 4 mL of cold 80% methanol was added to the cell monolayer to extract polar metabolites using a cell scraper. The cell lysate/methanol mixture was transferred to a 15 mL tube and centrifuged at 2,000×g at 4° C. for 10 minutes to pellet debris and proteins. The supernatant was transferred to a new tube and stored at −80° C. for liquid chromatography-mass spectrometry/mass spectrometry (LC-MS/MS) analysis. For lipid extract preparation, 3 mL of cold 100% isopropanol was added to the cell monolayer to scrape out cells. The resulting cell lysate/isopropanol mixture was transferred to a new 15 mL tube and centrifuged at 2,000×g at 4° C. for 10 minutes. The cleared supernatant was transferred to a new tube and stored at −20° C. for LC-MS/MS analysis.
The metabolite extract was subjected to LC-MS/MS analysis to determine the quantity of each metabolite in each sample.

## CCOc1ccccc1-n1c(C(C)N2CCN(C(=O)COc3ccc(Cl)cc3)CC2)nc2ccccc2c1=O (stereo not drawn) [erastin]
  guanosine Erastin/DMSO: 4.51
  guanosine log2 (Erastin/DMSO): 2.173
  hippurate Erastin/DMSO: 1.005
  hippurate log2 (Erastin/DMSO): 0.007657
  histamine Erastin/DMSO: 0.9526
  histamine log2 (Erastin/DMSO): −0.07002
  histidine Erastin/DMSO: 0.9779
  histidine log2 (Erastin/DMSO): −0.03228
  hydroxyphenylacetate Erastin/DMSO: 1.024
  hydroxyphenylacetate log2 (Erastin/DMSO): 0.03431
  hypoxanthine Erastin/DMSO: 0.9819
  hypoxanthine log2 (Erastin/DMSO): −0.02629
  indoxylsulfate Erastin/DMSO: 0.7913
  indoxylsulfate log2 (Erastin/DMSO): −0.3377
  inosine Erastin/DMSO: 1.867
  inosine log2 (Erastin/DMSO): 0.9005
  isocitrate Erastin/DMSO: 1.051
  isocitrate log2 (Erastin/DMSO): 0.07189
  isoleucine Erastin/DMSO: 0.9526
  isoleucine log2 (Erastin/DMSO): −0.07
  isomer_of_erythrose-4-phosphate Erastin/DMSO: 0.5887
  isomer_of_erythrose-4-phosphate log2 (Erastin/DMSO): −0.7644
  kynurenic acid Erastin/DMSO: 0.8322
  kynurenic acid log2 (Erastin/DMSO): −0.265
  kynurenine Erastin/DMSO: 1.04
  kynurenine log2 (Erastin/DMSO): 0.05699
  lactate Erastin/DMSO: 0.884
  lactate log2 (Erastin/DMSO): −0.1779
  leucine Erastin/DMSO: 0.9497
  leucine log2 (Erastin/DMSO): −0.07444
  lysine Erastin/DMSO: 0.9654
  lysine log2 (Erastin/DMSO): −0.05081
  malate Erastin/DMSO: 1.143
  malate log2 (Erastin/DMSO): 0.1934
  maleate/3-methyl-2-oxobutanoate Erastin/DMSO: 0.9484
  maleate/3-methyl-2-oxobutanoate log2 (Erastin/DMSO): −0.07647
  malonate Erastin/DMSO: 1.025
  malonate log2 (Erastin/DMSO): 0.03595
  methionine Erastin/DMSO: 0.9702
  methionine log2 (Erastin/DMSO): −0.04361
  niacinamide Erastin/DMSO: 0.9289
  niacinamide log2 (Erastin/DMSO): −0.1065
  nicotinate Erastin/DMSO: 1.085
  nicotinate log2 (Erastin/DMSO): 0.1179
  ornithine Erastin/DMSO: 0.9482
  ornithine log2 (Erastin/DMSO): −0.07676
  orotate Erastin/DMSO: 1.138
  orotate log2 (Erastin/DMSO): 0.1864
  oxalate Erastin/DMSO: 1.019
  oxalate log2 (Erastin/DMSO): 0.02659
  pantothenate Erastin/DMSO: 1.194
  pantothenate log2 (Erastin/DMSO): 0.2564
  phenylacetylglycine Erastin/DMSO: 1.135
  phenylacetylglycine log2 (Erastin/DMSO): 0.1828
  phenylalanine Erastin/DMSO: 1.005
  phenylalanine log2 (Erastin/DMSO): 0.007013
  phosphocholine Erastin/DMSO: 0.5252
  phosphocholine log2 (Erastin/DMSO): −0.9291
  phosphocreatine Erastin/DMSO: 1.173
  phosphocreatine log2 (Erastin/DMSO): 0.2302
  phosphoglycerate Erastin/DMSO: 0.9848
  phosphoglycerate log2 (Erastin/DMSO): −0.02206
  phosphotyrosine Erastin/DMSO: 0.6533
  phosphotyrosine log2 (Erastin/DMSO): −0.6143
  pimelate/3-methyladipate Erastin/DMSO: 1.021
  pimelate/3-methyladipate log2 (Erastin/DMSO): 0.03006
  proline Erastin/DMSO: 1.086
  proline log2 (Erastin/DMSO): 0.1195
  proprionate Erastin/DMSO: 1.092
  proprionate log2 (Erastin/DMSO): 0.1269
  pyruvate Erastin/DMSO: 1.283
  pyruvate log2 (Erastin/DMSO): 0.3592
  quinolinate Erastin/DMSO: 1.015
  quinolinate log2 (Erastin/DMSO): 0.02178
  ribose-5-P Erastin/DMSO: 1.113
  ribose-5-P log2 (Erastin/DMSO): 0.155
  ribulose-5-P Erastin/DMSO: 1.051
  ribulose-5-P log2 (Erastin/DMSO): 0.07112
  salicylurate Erastin/DMSO: 0.9637
  salicylurate log2 (Erastin/DMSO): −0.05339
  sebacate Erastin/DMSO: 0.9419
  sebacate log2 (Erastin/DMSO): −0.08641
  serine Erastin/DMSO: 1.053
  serine log2 (Erastin/DMSO): 0.07514
  serotonin Erastin/DMSO: 0.7924
  serotonin log2 (Erastin/DMSO): −0.3357
  sorbitol Erastin/DMSO: 0.9709
  sorbitol log2 (Erastin/DMSO): −0.04258
  suberate Erastin/DMSO: 1.003
  suberate log2 (Erastin/DMSO): 0.004641
  succinate/methylmalonate Erastin/DMSO: 1.008
  succinate/methylmalonate log2 (Erastin/DMSO): 0.01178
  sucrose Erastin/DMSO: 1.408
  sucrose log2 (Erastin/DMSO): 0.4939
  taurine Erastin/DMSO: 0.8259
  taurine log2 (Erastin/DMSO): −0.276
  taurochenodeoxycholate Erastin/DMSO: 1.181
  taurochenodeoxycholate log2 (Erastin/DMSO): 0.2399
  taurocholate Erastin/DMSO: 1.108
  taurocholate log2 (Erastin/DMSO): 0.1484
  taurodeoxycholate Erastin/DMSO: 1.168
  taurodeoxycholate log2 (Erastin/DMSO): 0.2237
  taurolithocholate Erastin/DMSO: 1.093
  taurolithocholate log2 (Erastin/DMSO): 0.1287
  thiamine Erastin/DMSO: 0.9385
  thiamine log2 (Erastin/DMSO): −0.09157
  threonine Erastin/DMSO: 0.9924
  threonine log2 (Erastin/DMSO): −0.01095
  thymidine Erastin/DMSO: 1.402
  thymidine log2 (Erastin/DMSO): 0.4879
  thymine Erastin/DMSO: 1.257
  thymine log2 (Erastin/DMSO): 0.3302
  thyroxine Erastin/DMSO: 0.8859
  thyroxine log2 (Erastin/DMSO): −0.1748
  triiodothyronine Erastin/DMSO: 0.8066
  triiodothyronine log2 (Erastin/DMSO): −0.31
  trimethylamine-N-oxide Erastin/DMSO: 1.222
  trimethylamine-N-oxide log2 (Erastin/DMSO): 0.2895
  tryptophan Erastin/DMSO: 0.9911
  tryptophan log2 (Erastin/DMSO): −0.01285
  tyrosine Erastin/DMSO: 0.9821
  tyrosine log2 (Erastin/DMSO): −0.02607
  urate Erastin/DMSO: 1.018
  urate log2 (Erastin/DMSO): 0.0257
  uridine Erastin/DMSO: 4.369
  uridine log2 (Erastin/DMSO): 2.127
  valine Erastin/DMSO: 0.9822
  valine log2 (Erastin/DMSO): −0.02594
  xanthine Erastin/DMSO: 1.027
  xanthine log2 (Erastin/DMSO): 0.03817
  xanthosine Erastin/DMSO: 0.98
  xanthosine log2 (Erastin/DMSO): −0.02909
